{"source": "patent US20250340590A1", "about": "“PEPTIDE HAVING ANTI-INFLAMMATORY ACTIVITY AND USE THEREOF” (CAREGEN CO., LTD., priority 2021, published 2025)", "type_in_all_cases": "cell-based", "key": {"Cox2": {"test_system": "Cox2", "assay": "Cox2 mRNA level by RT-PCR in TNFα-induced mouse splenocytes", "details": "TNFα 20 nM, peptide at 5 μM and 50 μM, 3 hours, compared to group not treated with the peptide", "method": "(§1) In order to further confirm the anti-inflammatory effect of the peptide treatment of the present invention in addition to the results of Experimental Example <3-1>, inflammation was induced by treating mouse splenocytes with TNFα, and the expression levels of inflammatory cytokines TNFα and IL-1β, and Cox2, which is an inflammation-inducing marker, genes were confirmed. In order to induce inflammation, the cells were treated with cytokine TNFα, and since TNFα corresponds to a signaling protein associated with inflammation, IL-1β corresponds to a cytokine that promotes inflammation, and Cox2 is a protein associated with inflammation, the degree of inflammation can be confirmed by measuring the expression levels of TNFα, Cox2, and IL-1β genes.\n(§2) Mouse splenocytes were dispensed into a 24-well plate at a concentration of 1× 10^7 cells/well and cultured until the next day. The medium was replaced with serum-free medium, and after 3 hours, the cells were treated with TNFα and the peptide of the present invention and then cultured for another 3 hours. In order to induce inflammation, the cells were treated with TNFα at 20 nM, and the peptide at 5 μM and 50 μM, respectively. […] After quantifying the amount of isolated RNA, cDNA was synthesized using a cDNA synthesis kit (Intron, Korea), PCR was performed using a PCR premix (Intron, Korea) and primers for TNFα, Cox2, and IL-1B. […]"}, "IL-17": {"test_system": "IL-17", "assay": "IL-17 secretion by ELISA in mouse splenocytes induced with LPS, TGFβ and IL-23", "details": "LPS 2 μg/mL, TGFβ 20 ng/ml, IL-23 20 ng/mL, 24 hours", "excerpt": "(§3) Inflammation was induced by treating mouse splenocytes with LPS, which is an inflammation-inducing antigen, and TGFβ and IL-23, which are inflammatory cytokines, and the secretion amounts of the inflammatory cytokines IL-17, IL-1β, and IFNγ were confirmed. The descriptions of IL-17, IL-1B, and IFNγ are the same as above.\n(§4) Mouse splenocytes were dispensed into a 24-well plate at a concentration of 1×10^7 cells/well and cultured until the next day. The medium was replaced with serum-free medium, and after 4 hours, the cells were treated with LPS, TGFβ, and IL-23 and the peptide of the present invention and then cultured again for another 24 hours. In order to induce inflammation, the cells were treated with LPS at 2 μg/mL, TGFβ at 20 ng/ml, IL-23 at 20 ng/mL, and the peptide at 5 μM and 50 μM, respectively. The mouse splenocytes in the group in which inflammation was not induced due to untreatment with LPS, TGFβ, and IL-23 (NON); the negative control group in which the cells were treated with LPS, TGFβ, and IL-23 but not treated with the peptide (NC); and the group in which the cells were treated with LPS, TGFβ, and IL-23 along with the peptide of the present invention at the same concentration as above, respectively, were reacted as described above and the cell cultures were recovered. […]"}, "IL-1β [1]": {"test_system": "IL-1β", "assay": "IL-1β secretion by ELISA in mouse splenocytes induced with LPS, TGFβ and IL-23", "details": "LPS 2 μg/mL, TGFβ 20 ng/ml, IL-23 20 ng/mL, 24 hours", "excerpt": "as §3, §4"}, "IL-1β [2]": {"test_system": "IL-1β", "assay": "IL-1β mRNA level by RT-PCR in TNFα-induced mouse splenocytes", "details": "TNFα 20 nM, peptide at 5 μM and 50 μM, 3 hours, compared to group not treated with the peptide", "method": "as §1, §2"}, "IL-1β [3]": {"test_system": "IL-1β", "assay": "IL-1β secretion by ELISA in LPS-induced mouse splenocytes", "details": "LPS 2 μg/mL, peptide at 5 μM and 50 μM, 24 hours", "method": "Inflammation was induced in mouse splenocytes, and the secretion amounts of inflammatory cytokines TNFα, IL-1β, and IFNγ were confirmed. In order to induce inflammation, the cells were treated with an inflammation-inducing antigen, LPS, and since TNFα corresponds to a signaling protein associated with inflammation, IL-1β corresponds to a cytokine that promotes inflammation, and IFNγ also corresponds to a cytokine that promotes inflammation, the degree of inflammation can be confirmed by measuring the secretion amounts of TNFα, IL-1B, and IFNγ.\nMouse splenocytes were dispensed into a 24-well plate at a concentration of 1×10^7 cells/well and cultured until the next day. The medium was replaced with serum-free medium, and after 4 hours, the cells were treated with LPS and the peptide of the present invention and then cultured again for another 24 hours. In order to induce inflammation, the cells were treated with LPS at 2 μg/mL, and the peptide at 5 μM and 50 μM, respectively. […]"}}, "data": [{"substance": "TWNS [peptide of the present invention]", "values": [{"measurement": "mRNA expression level of Cox2", "setting": "Cox2", "value": "decreased"}, {"measurement": "secretion amount of IL-17", "setting": "IL-17; peptide at 5 μM", "value": "slightly increased"}, {"measurement": "secretion amount of IL-17", "setting": "IL-17; peptide at 50 μM", "value": "decreased"}, {"measurement": "secretion amount of IL-1β", "setting": "IL-1β [1]; peptide at 5 μM", "value": "decreased"}, {"measurement": "secretion amount of IL-1β", "setting": "IL-1β [1]; peptide at 50 μM", "value": "decreased"}, {"measurement": "mRNA expression level of IL-1β", "setting": "IL-1β [2]", "value": "decreased"}, {"measurement": "secretion amount of IL-1β", "setting": "IL-1β [3]", "value": "decreased"}]}]}
